Data as given in PubChem BioAssay AID248 (DTP/NCI, 2004).
Values joined by “and” are separate entries in the source; they are usually repeats but may differ in a detail not shown here. Identical values can stand only once. Toxic doses and inconclusive results are not listed. Rule as the data show it: active = T/C of 150% or more; inactive = T/C below 125%.

System: L1210 leukemia ip in BDF1 mice, survival T/C
Test: NCI In Vivo Anticancer Drug Screen. Data for tumor model L1210 Leukemia (intraperitoneal) in B6D2F1 (BDF1) mice
Conditions: endpoint: mean survival time, higher = longer survival
How it was run: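 Transplantable tumor model; survival measured in treated vs vehicle control mice. Value = treated/control.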

[1] = dose: 100.0 mg/kg/injection, schedule: Q01DX009 (ip), vehicle: Klucel (hydroxypropylcellulose) (HPC)
[2] = dose: 200.0 mg/kg/injection, schedule: Q01DX009 (ip), vehicle: Klucel (hydroxypropylcellulose) (HPC)
[3] = dose: 400.0 mg/kg/injection, schedule: Q01DX009 (ip), vehicle: Klucel (hydroxypropylcellulose) (HPC)
[4] = dose: 100.0 mg/kg/injection, schedule: Q01DX001 (ip), vehicle: carboxymethylcellulose (CMC)
[5] = dose: 200.0 mg/kg/injection, schedule: Q01DX001 (ip), vehicle: carboxymethylcellulose (CMC)
[6] = dose: 400.0 mg/kg/injection, schedule: Q01DX001 (ip), vehicle: carboxymethylcellulose (CMC)

Measured: T/C

ClC(Cl)(Cl)CC(Br)C(Br)CBr (configuration not stated)
inactive: dose: 100.0 mg/kg/injection, schedule: Q01DX001 (ip), vehicle: acetone 96 % of control | dose: 100.0 mg/kg/injection, schedule: Q01DX009 (ip), vehicle: acetone 95 % of control | dose: 100.0 mg/kg/injection, schedule: Q04DX003 (ip), vehicle: acetone 97 % of control | dose: 200.0 mg/kg/injection, schedule: Q01DX001 (ip), vehicle: acetone 98 % of control | dose: 200.0 mg/kg/injection, schedule: Q04DX003 (ip), vehicle: acetone 92 % of control | dose: 400.0 mg/kg/injection, schedule: Q01DX001 (ip), vehicle: acetone 98 % of control | dose: 400.0 mg/kg/injection, schedule: Q04DX003 (ip), vehicle: acetone 91 % of control

Cc1ccc(C)c(NC(=O)Nc2ccccc2)c1
inactive: [1] 100 % of control | dose: 100.0 mg/kg/injection, schedule: Q04DX003 (ip), vehicle: Klucel (hydroxypropylcellulose) (HPC) 98 % of control | [2] 94 % of control | dose: 200.0 mg/kg/injection, schedule: Q04DX003 (ip), vehicle: Klucel (hydroxypropylcellulose) (HPC) 96 % of control | [3] 98 % of control | dose: 400.0 mg/kg/injection, schedule: Q04DX003 (ip), vehicle: Klucel (hydroxypropylcellulose) (HPC) 91 % of control

COC(=O)C(Cc1ccccc1)NC(=O)/C=C/N(CCCl)CCCl (configuration not stated)
inactive: dose: 10.0 mg/kg/injection, schedule: Q01DX Z (ip), vehicle: other 97 % of control | dose: 20.0 mg/kg/injection, schedule: Q01DX Z (ip), vehicle: other 96 % of control | dose: 40.0 mg/kg/injection, schedule: Q01DX Z (ip), vehicle: other 89 % of control | dose: 80.0 mg/kg/injection, schedule: Q01DX Z (ip), vehicle: other 102 % of control

c1ccc2c(c1)nc1n2CCC1
inactive: [4] 96 % of control | [5] 98 % of control | [6] 102 % of control

CN1CCC(c2ccccc2)c2ccccc21 (configuration not stated)
inactive: dose: 100.0 mg/kg/injection, schedule: Q04DX003 (ip), vehicle: other 95 % of control | dose: 200.0 mg/kg/injection, schedule: Q04DX003 (ip), vehicle: other 120 % of control | dose: 400.0 mg/kg/injection, schedule: Q04DX003 (ip), vehicle: other 98 % of control

CC(=O)c1ccc(P(=O)(O)O)cc1
inactive: dose: 75.0 mg/kg/injection, schedule: Q01DX001 (ip), vehicle: saline 96 % of control | dose: 150.0 mg/kg/injection, schedule: Q01DX001 (ip), vehicle: saline 102 % of control | dose: 300.0 mg/kg/injection, schedule: Q01DX001 (ip), vehicle: saline 98 % of control

O=c1oc2ccc(Cl)cc2n1CN1CCOCC1
inactive: [4] 96 % of control | [5] 96 % of control | [6] 88 % of control

COc1ccc(CCBr)cc1
inactive: [1] 97 % of control | [2] 97 % of control | [3] 95 % of control

COC(=O)C1=C(C)NC(=O)NC1c1ccc(N(CCCl)CCCl)c(OC)c1 (configuration not stated)
inactive: dose: 3.0 mg/kg/injection, schedule: Q01DX009 (ip), vehicle: Klucel (hydroxypropylcellulose) (HPC) 115 % of control | dose: 6.0 mg/kg/injection, schedule: Q01DX009 (ip), vehicle: Klucel (hydroxypropylcellulose) (HPC) 117 % of control | dose: 12.0 mg/kg/injection, schedule: Q01DX009 (ip), vehicle: Klucel (hydroxypropylcellulose) (HPC) 112 % of control | dose: 100.0 mg/kg/injection, schedule: Q01DX001 (ip), vehicle: Klucel (hydroxypropylcellulose) (HPC) 109 % of control

CC=NCc1ccccc1
inactive: dose: 50.0 mg/kg/injection, schedule: Q01DX009 (sc), vehicle: olive oil, sesame oil, peanut oil 98 % of control | dose: 100.0 mg/kg/injection, schedule: Q01DX009 (sc), vehicle: olive oil, sesame oil, peanut oil 114 % of control | dose: 100.0 mg/kg/injection, schedule: Q04DX003 (sc), vehicle: olive oil, sesame oil, peanut oil 105 % of control | dose: 200.0 mg/kg/injection, schedule: Q04DX003 (sc), vehicle: olive oil, sesame oil, peanut oil 98 % of control

[N-]=[N+]=C1N=NC=C1C(N)=O
inactive: dose: 50.0 mg/kg/injection, schedule: Q01DX001 (ip), vehicle: saline 98 % of control | dose: 100.0 mg/kg/injection, schedule: Q01DX001 (ip), vehicle: saline 107 % of control | dose: 200.0 mg/kg/injection, schedule: Q01DX001 (ip), vehicle: saline 107 % of control

Oc1ccc(-c2cc3c(O)ccc(O)c3[nH]2)cc1
inactive: dose: 50.0 mg/kg/injection, schedule: Q04DX002 (ip), vehicle: Klucel (hydroxypropylcellulose) (HPC) 96 % of control | dose: 100.0 mg/kg/injection, schedule: Q04DX002 (ip), vehicle: Klucel (hydroxypropylcellulose) (HPC) 105 % of control | dose: 200.0 mg/kg/injection, schedule: Q04DX002 (ip), vehicle: Klucel (hydroxypropylcellulose) (HPC) 102 % of control

CN(C)CC1CC(=O)C(CN(C)C)CC1=O (configuration not stated)
inactive: dose: 5.0 mg/kg/injection, schedule: Q01DX001 (ip), vehicle: saline 92 % of control | dose: 10.0 mg/kg/injection, schedule: Q01DX001 (ip), vehicle: saline 107 % of control | dose: 20.0 mg/kg/injection, schedule: Q01DX001 (ip), vehicle: saline 104 % of control | dose: 40.0 mg/kg/injection, schedule: Q01DX001 (ip), vehicle: saline 103 % of control

Cc1ccc(Cl)cc1NC(=O)Nc1cc(C(C)C)ccc1C
inactive: dose: 100.0 mg/kg/injection, schedule: Q01DX009 (ip), vehicle: saline with Tween-80 93 % of control and 100 % of control | dose: 100.0 mg/kg/injection, schedule: Q04DX002 (ip), vehicle: saline with Tween-80 100 % of control and 90 % of control | dose: 200.0 mg/kg/injection, schedule: Q01DX009 (ip), vehicle: saline with Tween-80 93 % of control and 91 % of control | dose: 200.0 mg/kg/injection, schedule: Q04DX002 (ip), vehicle: saline with Tween-80 93 % of control and 94 % of control | dose: 400.0 mg/kg/injection, schedule: Q01DX009 (ip), vehicle: saline with Tween-80 86 % of control | dose: 400.0 mg/kg/injection, schedule: Q04DX002 (ip), vehicle: saline with Tween-80 96 % of control and 101 % of control

CC(C#N)CN1CC1 (configuration not stated)
inactive: dose: 20.0 mg/kg/injection, schedule: Q01DX001 (ip), vehicle: Klucel (hydroxypropylcellulose) (HPC) 101 % of control

Cc1cc(/C=N\N=C(N)N)c(C)n1-c1ccccc1
inactive: dose: 15.0 mg/kg/injection, schedule: Q01DX Z (ip), vehicle: carboxymethylcellulose (CMC) 92 % of control | dose: 30.0 mg/kg/injection, schedule: Q01DX Z (ip), vehicle: carboxymethylcellulose (CMC) 95 % of control | dose: 60.0 mg/kg/injection, schedule: Q01DX Z (ip), vehicle: carboxymethylcellulose (CMC) 89 % of control | dose: 60.0 mg/kg/injection, schedule: Q01DX Z (oral), vehicle: carboxymethylcellulose (CMC) 106 % of control | dose: 120.0 mg/kg/injection, schedule: Q01DX Z (ip), vehicle: carboxymethylcellulose (CMC) 97 % of control | dose: 120.0 mg/kg/injection, schedule: Q01DX Z (oral), vehicle: carboxymethylcellulose (CMC) 101 % of control | dose: 240.0 mg/kg/injection, schedule: Q01DX Z (oral), vehicle: carboxymethylcellulose (CMC) 95 % of control and 100 % of control | dose: 480.0 mg/kg/injection, schedule: Q01DX Z (oral), vehicle: carboxymethylcellulose (CMC) 95 % of control and 102 % of control | dose: 960.0 mg/kg/injection, schedule: Q01DX Z (oral), vehicle: carboxymethylcellulose (CMC) 103 % of control | dose: 1920.0 mg/kg/injection, schedule: Q01DX Z (oral), vehicle: carboxymethylcellulose (CMC) 107 % of control

O=C(Nc1cccc(C(F)(F)F)c1)c1ccc(Cl)c(Cl)c1
inactive: dose: 100.0 mg/kg/injection, schedule: Q01DX009 (ip), vehicle: gum acacia 108 % of control | dose: 100.0 mg/kg/injection, schedule: Q04DX003 (ip), vehicle: gum acacia 100 % of control | dose: 200.0 mg/kg/injection, schedule: Q04DX003 (ip), vehicle: gum acacia 100 % of control | dose: 400.0 mg/kg/injection, schedule: Q01DX009 (ip), vehicle: gum acacia 96 % of control | dose: 400.0 mg/kg/injection, schedule: Q04DX003 (ip), vehicle: gum acacia 95 % of control
